Test results reported in US20240197938A1, “ANTIMICROBIAL COMPOUNDS BASED ON GLUCOHEPTONIC ACIDS AND THEIR SALTS” (HARCROS CHEMICALS, INC., priority 2021, published 2024).

Columns and labels:
[1] = Bubble pressure tensiometry (dynamic surface tension, calculated CMC); assay type: physicochemical; conditions: for Calculated CMC: bubble tensiometry
Method: Dynamic surface tensions of certain formulations were measured using a KRÜSS BP100 BPT Mobile bubble pressure tensiometer. Samples of the solution of Example 7 were tested by adding the test solution to a glass dish and lowering the disposable capillary tip and temperature probe into the solution. The dynamic setting was selected, and the instrument was set to collect 30 data points, the bubble age increasing from about 10 ms to about 30,000 ms.
Bubble tensiometry was used to calculate the Critical Micelle Concentration (CMC) value for each of the solutions.
FIG. 1 presents a comparison of the bubble age to surface tension for RM14A at CMC, sub-CMC, and super-CMC concentrations. FIG. 2 presents a comparison of the bubble age to surface tension for RM14B at CMC, sub-CMC, and super-CMC concentrations. FIG. 3 presents a comparison of the bubble age to surface tension for RM14C at CMC, sub-CMC, and super-CMC concentrations. FIG. 4 presents a comparison of the bubble age to surface tension for RM12A, RM13A, RM14A, and RM15A at super-CMC concentrations. FIG. 5 presents a comparison of the bubble age to surface tension for RM12A, RM13A, RM14A, and RM15A at CMC concentrations. FIG. 6 presents a comparison of the bubble age to surface tension for RM12A, RM13A, RM14A, and RM15A at CMC concentrations. FIG. 7 presents a comparison of bubble age to surface tension for RM12A, RM13A, RM14A, and RM15A at sub-CMC concentrations.

[2] = Conductivity testing (calculated CMC); assay type: physicochemical; conditions: for Calculated CMC, All Points: all data points; for Calculated CMC, Average: average of outer, inner, all points; for Calculated CMC, Inner Points: inner data points; for Calculated CMC, Outer Points: outer data points
Method: Conductivities were measured using a VWR 23609-216 Pure H2O Tester conductivity meter. The meter probe was submerged into the test solution and swirled gently. Once the meter settled, the value was recorded.
The conductivity of the solutions of Example 7 were tested at dilutions ranging from 0.1 M to 0.001 M. The data was plotted on a logarithmic scale and analyzed in the style of Heard and Ashworth. For each sample, three graphs were reported and fitted with a trend curve: outer data points, inner data points, all data points. […] An average CMC value was determined from the three trend samples (outer data points, inner data points, all data points) in order to more accuracy predict the CMC value.
LINEST was utilized to determine the slope and intercept for each line, and a combination of INTERCEPT and SLOPE was used to determine the intersection of the two fitted lines. The Critical Micelle Concentration (CMC) was determined for each of these plots by the intercept of the two lines. Set forth below in Table 5 is the calculated CMC for each graph and the average CMC.

Candida albicans = experiment: ASTM E2315-16 Time-Kill Procedure; assay type: cell-based; conditions: for Log Reduction: 30 seconds; for log reduction: 10 minutes
Method: (§1) Select compounds were tested for antimicrobial activity using ASTM method […]-16 (Standard Guide for Assessment of Antimicrobial Activity using a Time-Kill Procedure). Six microbes were tested: Candida albicans, Staphylococcus aureus, Staphylococcus epidermidis. Escherichia coli, Salmonella abony, and Listeria monocytogenes. Four chlorhexidine salts were tested: chlorhexidine di-α-glucoheptonate (Sample G), chlorhexidine di-β73-glucoheptonate (Sample H), chlorhexidine digluconate (Sample I), and chlorhexidine diacetate (Sample P). Both chlorhexidine diglucoheptonate salts were prepared at a 2:1 molar ratio of glucoheptonic acid to chlorhexidine. Dilutions of each salt were prepared using sterile water (20-30 ppm hardness), to achieve the desired wt. % concentration. Two glucoheptonic acids were evaluated for antimicrobial activity against the same six microbes as Example 13. Sample L was α-glucoheptonic acid. Sample M was β73-glucoheptonic acid. Benzalkonium salts were also tested using the same procedure as set forth in Example 13. The samples were benzalkonium chloride (C12-C16) (Sample C), benzalkonium chloride (C12-C14) (Sample D), benzalkonium chloride in combination with a stoichiometric amount of α-glucoheptonate (Sample F), and benzalkonium chloride in combination with a molar excess of α-glucoheptonate (Sample N). Sample F was prepared by mixing and extensively heating a stoichiometric quantity (1:1) of sodium α-glucoheptonate with benzalkonium chloride, typified by the C12-14 alkyl chain. Sample N was prepared by simply blending benzalkonium chloride, typified by the C12-16 chain, with a molar excess of sodium α-glucoheptonate (1.6:1). Both Samples F and N contain sodium chloride.

Staphylococcus aureus = experiment: ASTM E2315-16 Time-Kill Procedure; assay type: cell-based; conditions: for Log Reduction: 30 seconds; for log reduction: 10 minutes
Method: as §1

[3] = tested on: Staphylococcus epidermidis; experiment: ASTM E2315-16 Time-Kill Procedure; assay type: cell-based; conditions: for Log Reduction: 30 seconds; for log reduction: 10 minutes
Method: as §1

Escherichia coli = experiment: ASTM E2315-16 Time-Kill Procedure; assay type: cell-based; conditions: for Log Reduction: 30 seconds; for log reduction: 10 minutes
Method: as §1, with “concentration.” for “concentration. Two glucoheptonic acids were evaluated for antimicrobial activity against the same six microbes as Example 13. Sample L was α-glucoheptonic acid. Sample M was β73-glucoheptonic acid.”

Listeria monocytogenes = experiment: ASTM E2315-16 Time-Kill Procedure; assay type: cell-based; conditions: for Log Reduction: 30 seconds; for log reduction: 10 minutes
Method: as §1, with “concentration.” for “concentration. Two glucoheptonic acids were evaluated for antimicrobial activity against the same six microbes as Example 13. Sample L was α-glucoheptonic acid. Sample M was β73-glucoheptonic acid.”

Salmonella abony = experiment: ASTM E2315-16 Time-Kill Procedure; assay type: cell-based; conditions: for Log Reduction: 30 seconds; for log reduction: 10 minutes
Method: as §1, with “concentration.” for “concentration. Two glucoheptonic acids were evaluated for antimicrobial activity against the same six microbes as Example 13. Sample L was α-glucoheptonic acid. Sample M was β73-glucoheptonic acid.”

[4] = tested on: all microbes (Candida albicans, Staphylococcus aureus, Staphylococcus epidermidis, Escherichia coli, Salmonella abony, Listeria monocytogenes); experiment: ASTM E2315-16 Time-Kill Procedure, average across all microbes; assay type: cell-based; conditions: for Log Reduction, Average, all microbes: 30 seconds; for log reduction, Average, all microbes: 10 minutes
Method: Select compounds were tested for antimicrobial activity using ASTM method […]-16 (Standard Guide for Assessment of Antimicrobial Activity using a Time-Kill Procedure). Six microbes were tested: Candida albicans, Staphylococcus aureus, Staphylococcus epidermidis. Escherichia coli, Salmonella abony, and Listeria monocytogenes. Four chlorhexidine salts were tested: chlorhexidine di-α-glucoheptonate (Sample G), chlorhexidine di-β73-glucoheptonate (Sample H), chlorhexidine digluconate (Sample I), and chlorhexidine diacetate (Sample P). Both chlorhexidine diglucoheptonate salts were prepared at a 2:1 molar ratio of glucoheptonic acid to chlorhexidine. Dilutions of each salt were prepared using sterile water (20-30 ppm hardness), to achieve the desired wt. % concentration. Samples G, H, I, and P were also tested at a concentration of 0.60 wt % active and evaluated for the average Log Reduction in microbial population at 10 minutes, across all microbes. A further test was conducted at a concentration of 1.0 wt % active and evaluated for the average Log Reduction in microbial population at 10 minutes, across all microbes. Benzalkonium salts were also tested using the same procedure as set forth in Example 13. The samples were benzalkonium chloride (C12-C16) (Sample C), benzalkonium chloride (C12-C14) (Sample D), benzalkonium chloride in combination with a stoichiometric amount of α-glucoheptonate (Sample F), and benzalkonium chloride in combination with a molar excess of α-glucoheptonate (Sample N). Sample F was prepared by mixing and extensively heating a stoichiometric quantity (1:1) of sodium α-glucoheptonate with benzalkonium chloride, typified by the C12-14 alkyl chain. Sample N was prepared by simply blending benzalkonium chloride, typified by the C12-16 chain, with a molar excess of sodium α-glucoheptonate (1.6:1). Both Samples F and N contain sodium chloride. A further antimicrobial test was conducted to determine the log reduction at 10 minutes. Samples C, D, F, and N are as defined above.

With `N=C(NCCCCCCNC(=N)NC(=N)Nc1ccc(Cl)cc1)NC(=N)Nc1ccc(Cl)cc1.O=C(O)[C@H](O)[C@@H](O)[C@H](O)[C@H](O)CO.O=C(O)[C@H](O)[C@@H](O)[C@H](O)[C@H](O)CO` [RM12A, Chlorhexidine digluconate] the “Calculated CMC” value [1] was 0.0168 M, the “Calculated CMC, All Points” value [2] was 0.0133 M and the “Calculated CMC, Average” value [2] was 0.0126 M. For the same molecule, the “Calculated CMC, Inner Points” value [2] was 0.0128 M and the “Calculated CMC, Outer Points” value [2] was 0.0118 M.
In the case of `N=C(NCCCCCCNC(=N)NC(=N)Nc1ccc(Cl)cc1)NC(=N)Nc1ccc(Cl)cc1.O=C(O)[C@H](O)[C@@H](O)[C@H](O)[C@H](O)CO.O=C(O)[C@H](O)[C@@H](O)[C@H](O)[C@H](O)CO` [RM12B, Chlorhexidine digluconate], the “Calculated CMC” value [1] is reported as 0.0195 M, the “Calculated CMC, All Points” value [2] is reported as 0.0133 M and the “Calculated CMC, Average” value [2] is reported as 0.0127 M. For the same molecule, the “Calculated CMC, Inner Points” value [2] was 0.0131 M and the “Calculated CMC, Outer Points” value [2] was 0.0117 M.
In the case of `N=C(NCCCCCCNC(=N)NC(=N)Nc1ccc(Cl)cc1)NC(=N)Nc1ccc(Cl)cc1.O=C(O)[C@H](O)[C@@H](O)[C@H](O)[C@H](O)CO.O=C(O)[C@H](O)[C@@H](O)[C@H](O)[C@H](O)CO` [RM12C, Chlorhexidine digluconate], the “Calculated CMC” value [1] is reported as 0.0195 M, the “Calculated CMC, All Points” value [2] is reported as 0.0133 M and the “Calculated CMC, Average” value [2] is reported as 0.0131 M. The “Calculated CMC, Inner Points” value [2] was 0.0143 M and the “Calculated CMC, Outer Points” value [2] was 0.0116 M.
In the case of `N=C(NCCCCCCNC(=N)NC(=N)Nc1ccc(Cl)cc1)NC(=N)Nc1ccc(Cl)cc1.O=C(O)C(O)C(O)C(O)C(O)C(O)CO.O=C(O)C(O)C(O)C(O)C(O)C(O)CO` [RM13A, Chlorhexidine di-α-glucoheptonate], the “Calculated CMC” value [1] is reported as 0.0200 M, the “Calculated CMC, All Points” value [2] is reported as 0.0132 M and the “Calculated CMC, Average” value [2] is reported as 0.0123 M. For the same molecule, the “Calculated CMC, Inner Points” value [2] was 0.0122 M and the “Calculated CMC, Outer Points” value [2] was 0.0115 M.
In the case of `N=C(NCCCCCCNC(=N)NC(=N)Nc1ccc(Cl)cc1)NC(=N)Nc1ccc(Cl)cc1.O=C(O)C(O)C(O)C(O)C(O)C(O)CO.O=C(O)C(O)C(O)C(O)C(O)C(O)CO` [RM13B, Chlorhexidine di-α-glucoheptonate], the “Calculated CMC” value [1] is reported as 0.0167 M, the “Calculated CMC, All Points” value [2] is reported as 0.0132 M and the “Calculated CMC, Average” value [2] is reported as 0.0126 M. For the same molecule, the “Calculated CMC, Inner Points” value [2] was 0.0131 M and the “Calculated CMC, Outer Points” value [2] was 0.0116 M.
With `N=C(NCCCCCCNC(=N)NC(=N)Nc1ccc(Cl)cc1)NC(=N)Nc1ccc(Cl)cc1.O=C(O)C(O)C(O)C(O)C(O)C(O)CO.O=C(O)C(O)C(O)C(O)C(O)C(O)CO` [RM15, chlorhexidine di-β81-glucoheptonate] the “surface tension versus bubble age (rate and magnitude of reduction)” value ([1]; sub-CMC, CMC and super-CMC concentrations, FIGS. 1-7) was “fall more rapidly and to a lower value than either the di-α-glucoheptonate or the comparative digluconate salt”.
With “benzalkonium chloride (C12-C16) [Sample C]” the “Log Reduction” value (Candida albicans; 0.10%) was 4.18, the “Log Reduction” value (Candida albicans; 0.25%) was 4.35 and the “Log Reduction” value (Candida albicans; 0.50%) was 4.56. For the same molecule, the log reduction (Candida albicans; 0.10%) was 5.95, the log reduction (Candida albicans; 0.25%) was 6.35 and the log reduction (Candida albicans; 0.50%) was 6.43. For the same molecule, the “Log Reduction” value (Staphylococcus aureus; 0.10%) was 3.89, the “Log Reduction” value (Staphylococcus aureus; 0.25%) was 4.19 and the “Log Reduction” value (Staphylococcus aureus; 0.50%) was 4.37. For the same molecule, the log reduction (Staphylococcus aureus; 0.10%) was 5.86, the log reduction (Staphylococcus aureus; 0.25%) was 6.07 and the log reduction (Staphylococcus aureus; 0.50%) was 5.05. For the same molecule, the “Log Reduction” value ([3]; 0.10%) was 3.39, the “Log Reduction” value ([3]; 0.25%) was 3.50 and the “Log Reduction” value ([3]; 0.50%) was 3.65. It also gave a log reduction ([3]; 0.10%) of 4.79, a log reduction ([3]; 0.25%) of 5.05 and a log reduction ([3]; 0.50%) of 5.05. The “Log Reduction” value (Escherichia coli; 0.10%) was 3.01, the “Log Reduction” value (Escherichia coli; 0.25%) was 3.29 and the “Log Reduction” value (Escherichia coli; 0.50%) was 3.52. The log reduction (Escherichia coli; 0.10%) was 4.59, the log reduction (Escherichia coli; 0.25%) was 5.07 and the log reduction (Escherichia coli; 0.50%) was 5.07. For the same molecule, the “Log Reduction” value (Listeria monocytogenes; 0.10%) was 3.72, the “Log Reduction” value (Listeria monocytogenes; 0.25%) was 3.87 and the “Log Reduction” value (Listeria monocytogenes; 0.50%) was 3.99. The log reduction (Listeria monocytogenes; 0.10%) was 5.60, the log reduction (Listeria monocytogenes; 0.25%) was 5.99 and the log reduction (Listeria monocytogenes; 0.50%) was 6.02. The “Log Reduction” value (Salmonella abony; 0.10%) was 3.04, the “Log Reduction” value (Salmonella abony; 0.25%) was 3.34 and the “Log Reduction” value (Salmonella abony; 0.50%) was 3.39. For the same molecule, the log reduction (Salmonella abony; 0.10%) was 4.44, the log reduction (Salmonella abony; 0.25%) was 4.50 and the log reduction (Salmonella abony; 0.50%) was 4.50. For the same molecule, the “Log Reduction, Average, all microbes” value ([4]; 0.10%) was 3.54, the “Log Reduction, Average, all microbes” value ([4]; 0.25%) was 3.76 and the “Log Reduction, Average, all microbes” value ([4]; 0.50%) was 3.91. The “log reduction, Average, all microbes” value ([4]; 0.10%) was 5.21, the “log reduction, Average, all microbes” value ([4]; 0.25%) was 5.51 and the “log reduction, Average, all microbes” value ([4]; 0.50%) was 5.35.
